Test results taken from patent US20260285875A1, “INHIBITORS OF PARG” (858 Therapeutics, Inc., priority 2023, published 2026).

What follows are molecules tested against T1, cellular PARG (Homo sapiens, UniProt Q86W56) (assay: Nuclear PAR accumulation assay (immunofluorescence high-content imaging, MMS-treated HeLa cells)). Settings: 1 hour compound then MMS 50 μg/mL for an additional hour.
T1 construct: endogenous in cells; host or cells: HeLa
Format: cell-based
In short: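 HeLa cells pretreated with compound for 1 h at 37° C, then given 50 μg/mL MMS for another hour. After methanol fixation, PAR was immunostained with DAPI nuclear counterstain; per-nucleus intensity and percent PAR-positive cells were imaged at 20× (≥1,000 cells/well). IC50 from four-parameter logistic fit.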

T1 sequence (Q86W56 whole entry): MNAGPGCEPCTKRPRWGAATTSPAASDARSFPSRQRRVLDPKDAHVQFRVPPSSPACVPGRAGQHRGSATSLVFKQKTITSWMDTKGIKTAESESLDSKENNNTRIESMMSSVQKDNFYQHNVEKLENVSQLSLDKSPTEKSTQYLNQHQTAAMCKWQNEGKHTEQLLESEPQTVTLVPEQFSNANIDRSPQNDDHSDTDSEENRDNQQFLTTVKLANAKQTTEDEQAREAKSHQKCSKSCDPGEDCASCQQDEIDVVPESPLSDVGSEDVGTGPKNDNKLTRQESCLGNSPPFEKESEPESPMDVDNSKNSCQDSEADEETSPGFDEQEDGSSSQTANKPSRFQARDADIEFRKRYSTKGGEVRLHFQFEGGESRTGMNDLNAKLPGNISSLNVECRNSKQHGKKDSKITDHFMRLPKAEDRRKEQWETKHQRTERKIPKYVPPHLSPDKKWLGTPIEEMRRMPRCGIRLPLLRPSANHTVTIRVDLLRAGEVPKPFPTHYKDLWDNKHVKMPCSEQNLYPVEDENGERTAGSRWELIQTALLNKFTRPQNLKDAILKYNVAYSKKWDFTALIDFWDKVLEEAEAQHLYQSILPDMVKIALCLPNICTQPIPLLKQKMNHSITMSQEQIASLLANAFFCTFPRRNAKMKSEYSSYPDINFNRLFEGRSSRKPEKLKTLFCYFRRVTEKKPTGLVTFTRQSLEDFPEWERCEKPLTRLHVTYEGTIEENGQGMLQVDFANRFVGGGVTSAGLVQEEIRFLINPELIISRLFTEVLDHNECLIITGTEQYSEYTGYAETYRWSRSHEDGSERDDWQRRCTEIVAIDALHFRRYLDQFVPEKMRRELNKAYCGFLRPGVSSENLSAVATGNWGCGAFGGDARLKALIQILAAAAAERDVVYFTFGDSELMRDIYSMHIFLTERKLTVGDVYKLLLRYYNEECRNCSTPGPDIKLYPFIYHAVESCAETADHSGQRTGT

Structure (SMILES) | IC50 [nM]
[2H]C([2H])(c1cnn(C)c1)N1C(=O)c2cc(S(=O)(=O)NC3(C)CC3)ccc2N2C1=NC[C@H]2C#Cc1cn(C)nc1C [Example 232, (R)-1-((1,3-dimethyl-1H-pyrazol-4-yl)ethynyl)-4-((1-methyl-1H-pyrazol-4-yl)methyl-d2)-N-(1-methylcyclopropyl)-5-oxo-1,2,4,5-tetrahydroimidazo[1,2-a]quinazoline-7-sulfonamide] | < 100
C[C@@H]1CN=C2N(Cc3ccc(C#N)nc3)C(=O)c3cc(S(=O)(=O)NC4(C)CC4)ccc3N21 [Example 233, (R)-4-((6-cyanopyridin-3-yl)methyl)-1-methyl-N-(1-methylcyclopropyl)-5-oxo-1,2,4,5-tetrahydroimidazo[1,2-a]quinazoline-7-sulfonamide] | < 100
[2H]C([2H])(c1cnn(C)c1)N1C(=O)c2cc(S(=O)(=O)NC3(C)CC3)c(N)cc2N2C1=N[C@H]1CCC[C@H]12 [Example 234, (7aS,10aR)-2-amino-6-((1-methyl-1H-pyrazol-4-yl)methyl-d2)-N-(1-methylcyclopropyl)-5-oxo-6,7a,8,9,10,10a-hexahydro-5H-cyclopenta[4,5]imidazo[1,2-a]quinazoline-3-sulfonamide] | < 100
C[C@@H]1C[C@H](C)N2C(=N1)N(Cc1cnn(C)c1)C(=O)c1cc(S(=O)(=O)NC3(C)CC3)ccc12 [Example 235, (1S,3R)-1,3-dimethyl-5-((1-methyl-1H-pyrazol-4-yl)methyl)-N-(1-methylcyclopropyl)-6-oxo-2,3,5,6-tetrahydro-1H-pyrimido[1,2-a]quinazoline-8-sulfonamide] | 100 to 1000
C[C@@H]1C[C@@H](C)N2C(=N1)N(Cc1cnn(C)c1)C(=O)c1cc(S(=O)(=O)NC3(C)CC3)ccc12 [Example 236, (1R,3R)-1,3-dimethyl-5-((1-methyl-1H-pyrazol-4-yl)methyl)-N-(1-methylcyclopropyl)-6-oxo-2,3,5,6-tetrahydro-1H-pyrimido[1,2-a]quinazoline-8-sulfonamide] | < 100
[2H]C([2H])(c1cnn(C)c1)N1C(=O)c2cc(S(=O)(=O)NC3(CO)CC3)ccc2N2C1=NC[C@H]2C [Example 237, (R)-N-(1-(hydroxymethyl)cyclopropyl)-1-methyl-4-((1-methyl-1H-pyrazol-4-yl)methyl-d2)-5-oxo-1,2,4,5-tetrahydroimidazo[1,2-a]quinazoline-7-sulfonamide] | 1000 to 10000
Cc1cc(C#C[C@@H]2CN=C3N(Cc4cnn(C)c4)C(=O)c4cc(S(=O)(=O)NC5(C)CC5)ccc4N32)ccn1 [Example 238, (R)-4-((1-methyl-1H-pyrazol-4-yl)methyl)-N-(1-methylcyclopropyl)-1-((2-methylpyridin-4-yl)ethynyl)-5-oxo-1,2,4,5-tetrahydroimidazo[1,2-a]quinazoline-7-sulfonamide] | < 100

Other lines, results leading:

IC50 [nM] | Structure (SMILES)
100 to 1000 | C[C@@H]1CN=C2N(Cc3ccnc(C#N)c3)C(=O)c3cc(S(=O)(=O)NC4(C)CC4)ccc3N21 [Example 239, (R)-4-((2-cyanopyridin-4-yl)methyl)-1-methyl-N-(1-methylcyclopropyl)-5-oxo-1,2,4,5-tetrahydroimidazo[1,2-a]quinazoline-7-sulfonamide]
100 to 1000 | [2H]C([2H])(c1cnn(C)c1)N1C(=O)c2cc(S(=O)(=O)NC3(C)CC3)c(SC)cc2N2C1=N[C@H]1CCC[C@H]12 [Example 240, (7aS,10aR)-6-((1-methyl-1H-pyrazol-4-yl)methyl-d2)-N-(1-methylcyclopropyl)-2-(methylthio)-5-oxo-6,7a,8,9,10,10a-hexahydro-5H-cyclopenta[4,5]imidazo[1,2-a]quinazoline-3-sulfonamide]
< 100 | [2H]C([2H])(c1cnn(C)c1)N1C(=O)c2cc(S(=O)(=O)NC3(C)CC3)ccc2N2C1=NC[C@H]2C#CC1(N(CC)CC)CC1 [Example 241, (R)-1-((1-(diethylamino)cyclopropyl)ethynyl)-4-((1-methyl-1H-pyrazol-4-yl)methyl-d2)-N-(1-methylcyclopropyl)-5-oxo-1,2,4,5-tetrahydroimidazo[1,2-a]quinazoline-7-sulfonamide]
